Drawing on ChEMBL document CHEMBL3507680, “University of Dundee, Gates Library screen for HepG2 cell viability”, this text covers cytotoxicity for 103 molecules.

A short description of the data set: Human HepG2 cell viability assay in 384 well format. Particulars: HepG2 cells, read-out: Inhibition. Format: toxicity, cell-based. Further details: dose 125 nL, time 70.5 hour; concentration not given beside the values.
Turning to `Cc1cnn(CC2CCCN2C(=O)c2cccc(F)c2F)c1` (stereo not drawn), the cytotoxicity at 70.5 h is -1.26%.
The value for `COCCc1noc(CN2CCCC2Cn2nc(C)cc2C)n1` (stereo not drawn) was 1.57%.
The value for `COc1cccc(S(=O)(=O)CCNC2CCc3ncnn3C2)c1` (stereo not drawn) was -4.52%.
As to `O=C(COc1ccc(Cl)cc1)N1CCN(c2cnccn2)CC1`, the cytotoxicity at 70.5 h was -0.713%.
The value for `Cc1noc(C)c1C(=O)NCC(C)N1CCc2ccccc21` (stereo not drawn) was 9.63%; that for `CS(=O)(=O)N1CCC(NC(=O)COc2ccccc2Cl)CC1` was -3.89%.
Turning to `Cc1ccc(OCC(=O)NC2CCN(S(C)(=O)=O)CC2)cc1`, the cytotoxicity at 70.5 h was -1.26%.
For `COc1ncccc1NC(=O)NC1CCCN(c2ncccn2)C1` (stereo not drawn) the value was 1.22%; for `COCCCNC(=O)Nc1ccc(F)c(C(N)=O)c1`, 0.915%.
Take `CCCc1nc(C)c(C(=O)NCCN2CCOCC2)s1`: the cytotoxicity at 70.5 h came to 21.3%.
Take `COC(=O)c1cccn1C1CCN(Cc2cccc(C(N)=O)c2)CC1`: the cytotoxicity at 70.5 h is -0.0643%.
As for `CCOc1ncccc1NC(=O)NC1CCN(C(C)=O)CC1`, the cytotoxicity at 70.5 h was determined as 1.62%.
Regarding `COc1ccc(OCC(=O)NS(=O)(=O)c2ccc(Br)s2)cc1`, the cytotoxicity at 70.5 h is 18.9%.
The value for `COc1cc(C)ccc1OCC(=O)NS(=O)(=O)c1ccc(Br)s1` was -4.31%.
For the molecule `Cc1cnn(CC2CCCCN2c2nn3cc(C)nc3s2)c1` (stereo not drawn), the cytotoxicity at 70.5 h is 21.1%.
The value for `CN(CC(=O)N1CCCCC1c1nc(C(C)(C)C)cs1)C1CC1` (stereo not drawn) was 1.94%.
Turning to `c1cnn(CCN2CCOC(Cn3cccn3)C2)c1` (stereo not drawn), the cytotoxicity at 70.5 h is -4.95%.
The value for `OC1(CN2CCOC(Cn3cccn3)C2)CCCCC1` (stereo not drawn) was 0.595%; that for `Cc1ncccc1CNCC1CCCN1c1cccnn1` (stereo not drawn) was -3.29%; that for `Cc1cc(C(=O)N2CCCC(n3cncn3)C2)c(C)n1CC1CC1` (stereo not drawn) was -2.26%.
Take `Cc1nnc(NC(=O)NCc2ccnc(N(C)C)c2)s1`: the cytotoxicity at 70.5 h came to 1.13%.
`CC(NC(=O)NCc1cc(Br)cs1)c1ccccn1` (stereo not drawn): the cytotoxicity at 70.5 h is -3.66%.
Regarding `COc1ccc(C)cc1C(C)NC(=O)Cn1ccc(=O)n(C)c1=O` (stereo not drawn), the cytotoxicity at 70.5 h is -1.39%.
Consider `Cc1cc(C(=O)N2CCCC(n3cccn3)C2)c(C)n1C1CC1` (stereo not drawn), for which the cytotoxicity at 70.5 h was -2.54%.
Turning to `NC(=O)c1csc(C(=O)N2CCCC(n3cccn3)C2)c1` (stereo not drawn), the cytotoxicity at 70.5 h turned out to be 1.27%.
The value for `CC(C)=CCN1CCOC(Cn2cccn2)C1` (stereo not drawn) was 1.11%; that for `Cc1cn2nc(N3CCCC3Cn3nc(C)nc3C)sc2n1` (stereo not drawn) was -5.44%; that for `NC(=O)c1ccc(C(=O)N2CCCC(n3ccnc3)C2)s1` (stereo not drawn) was -2.91%.
As to `c1ncn(CC2CN(CC3CCCCC3)CCO2)n1` (stereo not drawn), the cytotoxicity at 70.5 h worked out at 2.16%.
With `OCC1CCCN1c1cc(NCc2ccsc2)ncn1` (stereo not drawn), the cytotoxicity at 70.5 h was found to be 1.84%.
`Cc1ncsc1CNc1cc(N2CCCC2CO)ncn1` (stereo not drawn): the cytotoxicity at 70.5 h turned out to be 26.9%.
With `CCc1ccc(CNc2cc(N3CCCC3CO)ncn2)s1` (stereo not drawn), the cytotoxicity at 70.5 h was determined as 1.8%.
As to `Cc1n[nH]c(C2CN(CCc3cccs3)CCO2)n1` (stereo not drawn), the cytotoxicity at 70.5 h came out at 14.5%.
In the case of `CCCc1n[nH]c(C2CN(CCc3cccs3)CCO2)n1` (stereo not drawn), the cytotoxicity at 70.5 h is -3.81%.
Consider `COc1cccc(CN2CCCC2Cn2nc(C)nc2C)c1` (stereo not drawn), for which the cytotoxicity at 70.5 h was determined as 3.03%.
On to `O=C(CCN1CCc2c(ncn2C2CC2)C1)NC1CCCC1`, for which the cytotoxicity at 70.5 h is -6.41%.
With `CC(C)c1nc(C2CCCN(C(=O)c3ccc4c(c3)COC4)C2)no1` (stereo not drawn), the cytotoxicity at 70.5 h stood at 0.421%.
Regarding `Cc1cc(F)ccc1CNCc1cccc(C(=O)N2CCCC2)c1`, the cytotoxicity at 70.5 h is -1.53%.
With `CCn1ccnc1CN1CCCN(C(=O)Cc2ccc(C)s2)CC1`, the cytotoxicity at 70.5 h stood at 26.4%.
The value for `CNS(=O)(=O)c1ccc(CNC(=O)c2c(C)oc(C)c2C)cc1` was -12.9%; that for `O=C(c1cccc(CNS(=O)(=O)c2ccc(F)cc2)c1)N1CCCC1` was -9.64%.
For `CC(C)CCC(=O)NCCc1ccn(-c2ccccc2)n1` the value was -5.88%.
With `CC(c1nc(C2CC2)no1)N1CCN(Cc2nnc(C3CC3)o2)CC1` (stereo not drawn), the cytotoxicity at 70.5 h is -2.67%.
Consider `CCC(CC)C(=O)NCCc1ccn(-c2ccccc2)n1`, for which the cytotoxicity at 70.5 h is -0.813%.
With `Cc1cnn(CC2CCCCN2C(=O)c2cnc3n[nH]c(C)c3c2)c1` (stereo not drawn), the cytotoxicity at 70.5 h was -4.13%.
As to `CSCc1ccc(CNC2CCCN(c3ccc(C)nn3)C2)o1` (stereo not drawn), the cytotoxicity at 70.5 h was -9.42%.
The value for `CCn1ccnc1CN1CCCN(C(=O)Cc2ccc(F)cc2)CC1` was 17.5%; that for `O=C(c1cn(-c2ccccc2)nn1)N1CCCC(n2cccn2)C1` (stereo not drawn) was -3.98%.
With `Cc1cnn(CC2CCCN2C(=O)c2cc(C)nc3[nH]nc(C)c23)c1` (stereo not drawn), the cytotoxicity at 70.5 h is -3.88%.
Regarding `Cc1ccc(CC(=O)N2CCCN(Cc3nccn3C)CC2)cn1`, the cytotoxicity at 70.5 h was -1.57%.
For `CC(C)c1nc(C2CCCN(C(=O)c3ccc4c(c3)OCO4)C2)no1` (stereo not drawn) the value was 18.1%; for `CCn1cc(C(=O)N2CCCC(c3noc(C)n3)C2)cn1` (stereo not drawn), -2.74%.
Take `CC(C)c1nc(C2CCCN(C(=O)c3ccc4nncn4c3)C2)no1` (stereo not drawn): the cytotoxicity at 70.5 h is -5.81%.
On to `Cc1nc(C2CCCN(C(=O)c3ccc(S(C)(=O)=O)cc3)C2)no1` (stereo not drawn), for which the cytotoxicity at 70.5 h was -6.59%.
`Cc1nc(C2CCCN(C(=O)c3ccoc3)C2)no1` (stereo not drawn): the cytotoxicity at 70.5 h is -7%.
With `COc1ccc(CN2CCCCC2Cn2nc(C)nc2C)cc1F` (stereo not drawn), the cytotoxicity at 70.5 h was -1.41%.
The value for `O=C(COCc1ccccc1Cl)N1CCCC(n2ccnc2)C1` (stereo not drawn) was 17.5%.
With `CCCc1nc(CN2CCN(C(C)c3nc(C4CC4)no3)CC2)no1` (stereo not drawn), the cytotoxicity at 70.5 h is -5.86%.
For `Cc1ccc(F)cc1S(=O)(=O)NCc1cccc(C(=O)N2CCCC2)c1` the value was -2.82%; for `O=C(CCc1ccncc1)NCc1csc(Br)c1`, -7.74%; for `O=C(NCCNc1ncccn1)N1CCSCC1`, -11.7%.
In the case of `O=C1CCc2cc(C(=O)NCc3ccc(-n4cncn4)nc3)ccc2N1`, the cytotoxicity at 70.5 h was -0.0283%.
Regarding `O=C(NCCNc1ccccn1)N1CCSCC1`, the cytotoxicity at 70.5 h is -5.96%.
Take `COc1cc(C)nc(N2CCN(C(=O)c3ccc[nH]3)CC2)n1`: the cytotoxicity at 70.5 h is -1.4%.
Consider `COc1cc(C)nc(N2CCN(C(=O)c3ccc(Cl)o3)CC2)n1`, for which the cytotoxicity at 70.5 h is -7.01%.
The value for `Cc1nn(C)c(C)c1C1CCCN1CC(=O)Nc1ccncc1` (stereo not drawn) was -7.94%; that for `CN(CCNC(=O)NCc1ccncc1)C1CCCC1` was -18%; that for `Cc1ccc(-c2nc(CN3CCc4nn(C)c(=O)cc4C3)no2)cc1` was -15.2%.
Turning to `Cc1cnn(CCC(=O)N2CCCC(c3cc(C(N)=O)[nH]n3)C2)c1` (stereo not drawn), the cytotoxicity at 70.5 h is -10.9%.
The value for `CCCOc1cc(CNC(=O)Nc2cccnc2N2CCCC2)ccn1` was -24.2%.
For `c1cnnc(N2CCCC(NCc3cn4ccccc4n3)C2)c1` (stereo not drawn) the value was 15.8%.
For `c1ccc(-c2nc(CN3CCc4c(ncn4C4CC4)C3)cs2)cc1`, the cytotoxicity at 70.5 h amounted to 5.22%.
As for `CN(Cc1cn2ccccc2n1)C1CCCN(c2cccnn2)C1` (stereo not drawn), the cytotoxicity at 70.5 h is 12.5%.
With `Cc1ccc(-c2nc(CNCC3CN(C)CCO3)cs2)o1` (stereo not drawn), the cytotoxicity at 70.5 h is 18.6%.
For `CS(=O)(=O)NCC1CCCN(C(=O)c2ccc(Cl)o2)C1` (stereo not drawn), the cytotoxicity at 70.5 h was -8.13%.
For `CS(=O)(=O)NCC1CCCN(C(=O)c2cc3ccccc3o2)C1` (stereo not drawn) the value was -3.7%.
For `O=C(NCCOc1ccc2c(c1)OCO2)N1CCC1`, the cytotoxicity at 70.5 h is -12.5%.
The value for `COCc1nc(C(=O)N2CCCC(n3cccn3)C2)cs1` (stereo not drawn) was -13.4%.
As to `O=C(c1cc2cc(F)ccc2[nH]1)N1CCC(Nc2cccnn2)CC1`, the cytotoxicity at 70.5 h amounted to 24.4%.
For `Cc1ccn(-c2cccc(C(=O)N3CCCC(n4ccnc4C)C3)c2)n1` (stereo not drawn) the value was -11.3%; for `CCc1nccn1C1CCCN(C(=O)c2csc(COC)n2)C1` (stereo not drawn), -17.8%.
Take `CCC(O)CN1CCN(C(=O)Cc2cc(Cl)ccc2OC)CC1` (stereo not drawn): the cytotoxicity at 70.5 h was -8.81%.
For `O=C(Cc1n[nH]c2ccccc12)N1CCC(Nc2cccnn2)CC1` the value was -2.23%.
Turning to `CC(Cn1cccn1)NC(=O)N1CCN(Cc2cccnc2)CC1` (stereo not drawn), the cytotoxicity at 70.5 h was -7.03%.
With `COc1ccc(Cl)cc1CC(=O)N1CCN(CCO)CC1`, the cytotoxicity at 70.5 h amounted to 12.5%.
On to `Cc1nc(C)c(C(=O)OCCNc2ncccc2C#N)s1`, for which the cytotoxicity at 70.5 h is -11.1%.
For `O=C(N1CCC(Nc2cccnn2)CC1)C1(c2ccc(F)cc2)CC1` the value was -6.39%; for `Cc1nc(C)n(CC2CCCN2Cc2ccn(-c3ccccc3)n2)n1` (stereo not drawn), 3.67%.
For `CC(=O)N1CCCN(CC(C)(O)c2cccc(C(F)(F)F)c2)CC1` (stereo not drawn) the value was -3.98%.
The value for `c1ccc(-n2ccc(CN3CCCC3Cn3cccn3)n2)cc1` (stereo not drawn) was -13.6%.
In the case of `Cc1noc(C(C)C)c1C(=O)NCCCOC(C)C`, the cytotoxicity at 70.5 h was -4.85%.
For `CC(c1cccc(S(N)(=O)=O)c1)N(C)CCOc1ccccc1` (stereo not drawn), the cytotoxicity at 70.5 h was -16.8%.
As to `CCc1nc(C2CCCN2C(=O)CCn2cncn2)no1` (stereo not drawn), the cytotoxicity at 70.5 h was -21.3%.
Consider `COc1c(C2CCCN2C(=O)c2cncnc2C)c(C)nn1C` (stereo not drawn), for which the cytotoxicity at 70.5 h is 39.1%.
Turning to `O=S(=O)(CCCN1CCCC1Cn1cncn1)c1ccccc1` (stereo not drawn), the cytotoxicity at 70.5 h is 11.6%.
Turning to `CN1CCC/C1=N\S(=O)(=O)c1ccc(NC(=O)c2ccc(F)cc2)cc1`, the cytotoxicity at 70.5 h was -4.6%.
For `CC(C)CCCNC(=O)Nc1ccc(F)c(C(N)=O)c1`, the cytotoxicity at 70.5 h amounted to 2.14%.
As to `CCn1cc(NC(=O)NCc2ccc3c(c2)OCCO3)cn1`, the cytotoxicity at 70.5 h was -13%.
Regarding `COc1ccc(F)cc1C(C)NC(=O)Cn1ccc(=O)n(C)c1=O` (stereo not drawn), the cytotoxicity at 70.5 h is -6.42%.
Turning to `COc1c(CNCc2ccc(C(=O)N3CCCC3)cc2)c(C)nn1C`, the cytotoxicity at 70.5 h was determined as 10.8%.
For the molecule `COc1cc(CNC2CCCc3c2cnn3C)cc(OC)c1` (stereo not drawn), the cytotoxicity at 70.5 h is -16.8%.
Regarding `c1cnc(N2CCCC(NCc3cccc4c3OCCO4)C2)nc1` (stereo not drawn), the cytotoxicity at 70.5 h amounted to 3.71%.
The value for `Cc1nn(C)c(N2CCOCC2)c1CNC1CCc2cc(F)ccc21` (stereo not drawn) was -19.2%.
